Where two headings read alike, the source gives them in different places.
What was measured:
[1] = test system: A549 (human lung adenocarcinoma cells); assay: Cell viability assay (resazurin), cytotoxic activity against solid tumours; type: cell-based; details: for IC50: read-out: IC50 A549 (Lung adenocarcino ma); for S.I. A549 (Selectivity Index): IC50 HaCaT divided by IC50 A549, mean of independent experiments
Experimental: (§1) Cells were grown in Dulbecco's Modified Eagle's Medium (DMEM) supplemented with 100 U/mL penicillin, 100 µg/mL streptomycin and 10% fetal bovine serum. HL60 cell line (acute myeloid leukaemia, AML) was obtained from ATCC. It was cultured in IMDM medium supplemented with 100 U/mL penicillin, 100 µg/mL streptomycin and 10% fetal bovine serum. U937 (AML) and Jurkat cells (ALL) were obtained from DMSZ, Braunschweig, Germany, and ATCC, respectively. They were cultivated in RPMI medium, supplemented with 100 U/mL penicillin, 100 µg/mL streptomycin and 10% fetal bovine serum. […] All cell lines were cultured at 37 ° C with 5% CO2 in a humidified incubator. Cell culture reagents were purchased from Biowest. Exponentially growing cells (3000-6000 cells per well) were seeded in 96-well plates. After 24 hours, cells were treated with the drugs for 72 hours. The cell viability was then estimated with the resazurin assay, a colorimetric technique based on the capability of viable cells to reduce the blue reagent resazurin to the pink-soluble product resorufin. The amount of resorufin produced is proportional to the number of viable cells. Briefly, cells were washed once with phosphate buffered saline (PBS) and 150 µL resazurin (20 µg/mL in medium) was added to each well. […] Cell viability was calculated as a percentage compared to non-treated cells. The results were expressed as the means ± standard error of the mean (SEM). All data are from at least three independent experiments. The selectivity index (S.I.) values were calculated over each cancer cell line as the mean of the IC50 value in the non-malignant cell line (HaCaT) by the IC50 in the respective cancer cell line obtained in each independent experiment.

[2] = test system: MeWo (human melanoma cells); assay: as above; type: cell-based; details: for IC50: read-out: IC50 MeWo (Melanoma; BRAF WT); for S.I. MeWo (Selectivity Index): IC50 HaCaT divided by IC50 MeWo, mean of independent experiments
Experimental: as §1

[3] = test system: T24 (human bladder cancer cells); assay: as above; type: cell-based; details: for IC50: read-out: IC50 T24 (Bladder cancer); for S.I. T24 (Selectivity Index): IC50 HaCaT divided by IC50 T24, mean of independent experiments
Experimental: as §1

HaCaT cells = assay: Cell viability assay (resazurin), cytotoxicity in non-malignant cells; type: cell-based, human; details: read-out: IC50 HaCaT (Non-malignant keratinocyte)
Experimental: Cells were grown in Dulbecco's Modified Eagle's Medium (DMEM) supplemented with 100 U/mL penicillin, 100 µg/mL streptomycin and 10% fetal bovine serum. HL60 cell line (acute myeloid leukaemia, AML) was obtained from ATCC. It was cultured in IMDM medium supplemented with 100 U/mL penicillin, 100 µg/mL streptomycin and 10% fetal bovine serum. U937 (AML) and Jurkat cells (ALL) were obtained from DMSZ, Braunschweig, Germany, and ATCC, respectively. They were cultivated in RPMI medium, supplemented with 100 U/mL penicillin, 100 µg/mL streptomycin and 10% fetal bovine serum. […] All cell lines were cultured at 37 ° C with 5% CO2 in a humidified incubator. Cell culture reagents were purchased from Biowest. Exponentially growing cells (3000-6000 cells per well) were seeded in 96-well plates. After 24 hours, cells were treated with the drugs for 72 hours. The cell viability was then estimated with the resazurin assay, a colorimetric technique based on the capability of viable cells to reduce the blue reagent resazurin to the pink-soluble product resorufin. The amount of resorufin produced is proportional to the number of viable cells. Briefly, cells were washed once with phosphate buffered saline (PBS) and 150 µL resazurin (20 µg/mL in medium) was added to each well. The plates were incubated for 3 hours at 37 °C, 5% CO2, and finally optical densities were measured at 540 and 620 nm with a multiwell plate spectrophotometer reader (Multiskan EX Labsystems). Cell viability was calculated as a percentage compared to non-treated cells. The results were expressed as the means ± standard error of the mean (SEM). All data are from at least three independent experiments.

[4] = test system: Jurkat (Acute lymphoblastic leukaemia); assay: Antileukemic activity, cell viability (CCK-8 Cell Counting Kit); type: cell-based; details: Homo sapiens, 18 h incubation, compounds 0 - 100 µM, read-out: IC50 Cancer cells Jurkat (Acute lymphoblastic leukaemia)
Experimental: (§2) HaCaT cells (human keratinocytes, reference control), A549 (human lung adenocarcinoma cells), MeWo (human melanoma cells) and T24 (human bladder cancer cells) were purchased from Cell Lines Service (CLS). Cells were grown in Dulbecco's Modified Eagle's Medium (DMEM) supplemented with 100 U/mL penicillin, 100 µg/mL streptomycin and 10% fetal bovine serum. HL60 cell line (acute myeloid leukaemia, AML) was obtained from ATCC. It was cultured in IMDM medium supplemented with 100 U/mL penicillin, 100 µg/mL streptomycin and 10% fetal bovine serum. U937 (AML) and Jurkat cells (ALL) were obtained from DMSZ, Braunschweig, Germany, and ATCC, respectively. They were cultivated in RPMI medium, supplemented with 100 U/mL penicillin, 100 µg/mL streptomycin and 10% fetal bovine serum. OPM-2 cell line (MM), was obtained from DMSZ, Braunschweig, Germany and cultured in RPMI medium supplemented with 100 U/mL penicillin, 100 µg/mL streptomycin, 10% fetal bovine serum and 1X GlutaMAXTM. All cell lines were cultured at 37 ° C with 5% CO2 in a humidified incubator. Cell culture reagents were purchased from Biowest.
(§3) For the leukemic cell lines, the CCK-8 Cell Counting Kit (Dojindo Molecular Technologies) was used according to manufacturers instructions. Briefly, 50.000 cells were seeded in each well of a 96 well plate, and they were treated with increased amounts (0 - 100 µM) of each of the compounds, and incubated for 18 h at 37 °C, 5% CO2. After this period, 7 µl of the CCK-8 reagent were added to each well, and cells were further incubated for 2 h at 37 °C, 5% CO2. OD at 450 nm was obtained using a MultiskanTM GO microplate reader (Thermo Fisher Scientific, Waltham, MA, EE.UU). Cell viability in each condition was normalized to the measurement obtained in the non treated samples (100%), and were represented as average ± standard error of the mean (SEM).

[5] = test system: HL60 (Acute myeloid leukaemia); assay: as above; type: cell-based; details: Homo sapiens, HL-60; 18 h incubation, compounds 0 - 100 µM; read-out: IC50 Cancer cells HL60 (Acute myeloid leukaemia)
Experimental: as §2, §3

[6] = test system: U937 (Acute myeloid leukaemia); assay: as above; type: cell-based; details: Homo sapiens, U-937; 18 h incubation, compounds 0 - 100 µM; read-out: IC50 Cancer cells U937 (Acute myeloid leukaemia)
Experimental: as §2, §3

OPM-2 (Multiple myeloma) = assay: as above; type: cell-based; details: Homo sapiens, 18 h incubation, compounds 0 - 100 µM, read-out: IC50 Cancer cells OPM-2 (Multiple myeloma)
Experimental: as §2, §3

[7] = Homo sapiens, A549, 72 h treatment, resazurin assay, mean ± SEM
[8] = Homo sapiens, MeWo, 72 h treatment, resazurin assay, mean ± SEM
[9] = Homo sapiens, 72 h treatment, resazurin assay, mean ± SEM
[10] = Homo sapiens, HaCaT, 72 h treatment, resazurin assay, mean ± SEM
[11] = 72 h treatment, resazurin assay, mean ± SEM

SMILES	IC50 [1, 7] [µM]	S.I. A549 (Selectivity Index) [1]	IC50 [2, 8] [µM]	S.I. MeWo (Selectivity Index) [2]	IC50 [3, 9] [µM]	S.I. T24 (Selectivity Index) [3]	IC50 (HaCaT cells; [10]) [µM]	IC50 [4] [µM]	IC50 [5] [µM]	IC50 [6] [µM]	IC50 (OPM-2 (Multiple myeloma)) [µM]	IC50 [1, 11] [µM]	IC50 [2, 11] [µM]	IC50 [3, 11] [µM]	IC50 (HaCaT cells; [11]) [µM]	IC50 ([1]; Homo sapiens, A549, 72 h) [µM]	IC50 ([2]; Homo sapiens, MeWo, 72 h) [µM]	IC50 ([3]; Homo sapiens, 72 h) [µM]	IC50 (HaCaT cells; Homo sapiens, HaCaT, 72 h) [µM]
CC(=O)OC[C@H]1O[C@H](Sc2ccccc2)[C@H](OC(C)=O)[C@@H](N=C=S)[C@@H]1OC(C)=O [Compound 15α, Phenyl 2,4,6-tri-O-acetyl-3-isothiocyanato-1,3-dideoxy-1-thio-α-D-glucopyranoside]	14.1 ± 2.9	1.4±0.3	18.8 ± 2.4	1.0±0.1	15.3 ± 2.1	1.2±0.1	17.7 ± 1	14.4	4.2	8.3	10.2	–	–	–	–	–	–	–	–
CCS[C@@H]1O[C@H](COC(C)=O)[C@@H](OC(C)=O)[C@H](N=C=S)[C@H]1OC(C)=O [Compound 14β, Ethyl 2,4,6-tri-O-acetyl-3-isothiocyanato-1,3-dideoxy-1-thio-β-D-glucopyranoside]	45.1 ± 6.8	1.6±0.1	49.9 ± 8.5	1.5±0.2	42 ± 5.7	1.7±0.2	72.2 ± 13.2	17.8	~13	~26.7	20.1	–	–	–	–	–	–	–	–
CC[S@+]([O-])[C@@H]1O[C@H](COC(C)=O)[C@@H](OC(C)=O)[C@H](N=C=S)[C@H]1OC(C)=O [(SS)-17β, Ethyl 2,4,6-tri-O-acetyl-3-isotiocianato-1,3-dideoxy-1[(S)-sulfinyl]-β-D-glucopyranose]	56.4 ± 6.6	1.5±0.1	51.5 ± 7.9	1.7±0.0	42.3 ± 3.2	2.0±0.2	85.2 ± 12.7	89.5	~25.3	45.6	52.4	–	–	–	–	–	–	–	–
C[S+]([O-])CCCCN=C=S (stereo not shown) [SFN, sulforaphane, reference compound]	10.6 ± 2.1	1.7 ± 0.2	12.9 ± 4.2	1.7±0.4	6.3 ± 0.2	2.6±0.3	16.6 ± 2.4	–	–	–	–	–	–	–	–	–	–	–	–
N.N.[Cl][Pt][Cl] [Cisplatin, reference compound]	–	–	–	–	–	–	–	–	–	–	–	13.5 ± 2.7	2.2 ± 1.1	1.6 ± 0.5	2.1 ± 0.7	–	–	–	–
CSCCCN=C=S [Compound 4, (3-isothiocyanatopropyl)(methyl)sulfane, reference compound]	–	–	–	–	–	–	–	8.9	9	–	12	–	–	–	–	31.1 ± 7.6	31.6 ± 5.7	14.4 ± 1.1	43.9 ± 3.2
CC[S@@+]([O-])[C@H]1O[C@H](COC(C)=O)[C@@H](OC(C)=O)[C@H](N=C=S)[C@H]1OC(C)=O [(RS)-17α, Ethyl 2,4,6-tri-O-acetyl-3-isothiocyanato-1,3-dideoxy-1[(R)-sulfinyl]-α-D-glucopyranse]	108 ± 25.7	> 1.1	113 ± 39.2	> 1.1	65.6 ± 13.3	> 1.6	> 100	38.1	50.3	41.2	–	–	–	–	–	–	–	–	–
CC(=O)OC[C@H]1O[C@H](S(=O)(=O)c2ccccc2)[C@H](OC(C)=O)[C@@H](N=C=S)[C@@H]1OC(C)=O [Compound 21α, Phenyl 2,4,6-tri-O-acetyl-3-isothiocyanato-1,3-dideoxy-1-sulfonyl-α-D-glucopyranose]	–	1.9±0.2	–	2.0±0.3	–	2.4±0.4	–	–	–	–	–	–	–	–	–	22.9 ± 3.7	22.9 ± 5.9	18.5 ± 0.6	45 ± 8.9
CC(=O)OC[C@H]1O[C@@H]([S@+]([O-])c2ccccc2)[C@H](OC(C)=O)[C@@H](N=C=S)[C@@H]1OC(C)=O [(RS)-18β, Phenyl 2,4,6-tri-O-acetyl-3-isotiocianato-1,3-dideoxy-1[(R)-sulfinyl]-β-D-glucopyranose]	21.9 ± 2.5	1.7±0.2	21.9 ± 2.9	1.8±0.2	17.2 ± 1.2	2.2±0.4	39.4 ± 8.7	–	–	–	–	–	–	–	–	–	–	–	–
CC(=O)OC[C@H]1O[C@@H](Sc2ccccc2)[C@H](OC(C)=O)[C@@H](N=C=S)[C@@H]1OC(C)=O [Compound 15β, Phenyl 2,4,6-tri-O-acetyl-3-isothiocyanato-1,3-dideoxy-1-thio-β-D-glucopyranoside]	32.2 ± 10.2	1.3±0.1	30.2 ± 9.5	1.1±0.0	27.1 ± 8.7	1.2±0.1	32.2 ± 10.2	–	–	–	–	–	–	–	–	–	–	–	–

From patent EP4534542A1, “THIOSUGAR BASED ISOTHIOCYANATES AND USES THEREOF” (Universidad de Sevilla, priority 2023, dated 2025)
